Data published in patent US5177059A, “Polymyxin B conjugates” (Sandoz Ltd., priority 1990, dated 1993).

Experiments:
Type in all cases: in vivo
non-sensitized mice = assay: PMB (native and conjugated forms) induced lethality, i.p.; conditions: i.p. injection, lethality monitored for 7 days
Procedure: B. PMB (native and conjugated forms) induced lethality
PMB (native and conjugated forms) are evaluated for their inherent toxicity in non-sensitized mice. Male CB57BL/c mice (18-22 g, Jackson Labs) are used throughout this study. Animals are given either native PMB or conjugated PMB by intraperitoneal injection (0.5 ml/animal) and lethality monitored for 7 days. The LD100 is determined by varying the dose of PMB (native and conjugated forms) that result in 100% lethality. From 10-20 animals are used for each dose.

endotoxin (0111B4) = assay: PMB anti-endotoxin evaluations: protection from endotoxin-induced lethality in galactosamine-hypersensitized mice
Procedure: A. Endotoxin-induced lethality
Male CB57BL/c mice (18-22 g, Jackson Labs) are used throughout this study. Animals are given endotoxin (0111B4 from List Biologicals, Palo Alto, Calif.) and galactosamine to hypersensitize, as described in Galanos et al., 1979. Proc. Natl. Acad. Sci. USA 76: 5939. The endotoxin and galactosamine (320 mg/kg) are injected intraperitoneally in 0.5 ml pyrogen-free isotonic saline per animal between 13:00 and 15:00 to avoid diurnal variation. From a dose-response study, it is determined that 0.01 mg/kg endotoxin produces 85-95% lethality. Animals are observed each day for 6 days after injection.
C. PMB anti-endotoxin evaluations
PMB (native and conjugated forms) are evaluated for their ability to neutralize endotoxin by either pre-mixing with endotoxin for 60 minutes before i.p. injection or by coadministration of the substances as a single i.p. injection. While the concentration of the PMB (native and conjugated forms) are varied, the volume of each injection is kept constant at 0.5 ml per animal. The protection by the conjugated PMB was compared to the native PMB (in terms of mg protein/kg). Controls (endotoxin, galactosamine, and vehicle) are included as well in each study. Each group has between 10-17 animals. […]
The Therapeutic Index (TI) for PMB (native and conjugated) forms is determined by dividing the LD100 by the PD100. […]

normal test animal = assay: i.v. toxicity (LD0, LD100), lethality monitored over 7 days
Source text: LD0 is the highest non-toxic dose of PMB or its conjugate.
LD100 is the dose of PMB or its conjugated form which results in 90-100% lethality when injected into a normal test animal.
The "ultra pure" PMB-conjugate has a suprising reduction in toxicity as compared with native PMB. […] Comparisons in the table below are made between the highest non-toxic dose of PMB (native or conjugated)
^1 PMB (native or conjugate) given by i.v. injection and lethality
monitored over 7 days. LD0 is the highest nontoxic dose which can be
injected into a normal test animal.

E.coli 0111B4 endotoxin = assay: i.v. protection against LD90 endotoxin challenge (endotoxin-induced lethality test); conditions: i.v. injection 1-3 minutes before an LD90 i.p. injection of E.coli 0111B4 endotoxin (0.5 μg/kg)
Procedure: The resulting "ultra pure" PMB-conjugate is compared to native PMB in an endotoxin-induced leathality test as described in Example 3C supra.
At 1 mg/kg i.v., the ultra-pure PMB-conjugate gave >70% protection against a LD90 endotoxin challenge for at least 6 hours. […] Therefore the PMB-conjugate is suitable for prophylactic use.
^2 PMB (native or conjugate) given by i.v. injection 1-3 minutes
before an LD90 i.p. injection of E.coli 0111B4 endotoxin (0.5

polymyxin B [Native PMB]
LD100 (non-sensitized mice): 25 mg/kg | PD100 (endotoxin (0111B4); PMB or conjugate allowed to react with the endotoxin for 60 min before i.p. injection): 2 mg/kg | PD100 (endotoxin (0111B4); i.p., dose giving >95% survival, pre-mixing or coadministration with endotoxin not stated for the row): 2 mg/kg | LD100 (normal test animal; i.v.): 9.5 mg/kg | LD0 (highest non-toxic dose) (normal test animal; i.v. injection, lethality monitored over 7 days): 5 mg/kg | PD100 (E.coli 0111B4 endotoxin): 0.1 mg/kg
